Measured values: PubChem BioAssay AID2060495 (Molecular Pharmacology Branch, DTP, NCI, 2025)

Test system: 521955-158-R2-J5-PDC complex spheroid viability
Experiment: Anticancer human tumor 521955-158-R2-J5-PDC patient-derived pancreatic carcinoma cell line growth inhibition [GQUAD]
Details: for IC50: curve of first compound; for viability, T/C: stronger effect = lower value
How it was run: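 Multi-cell-type spheroids of tumor cells with HUVEC and mesenchymal stem cells, treated with drug combinations. Concentrations descend in half-log steps from near clinical Cmax, or from 10 microM where Cmax is unknown; viability read-out.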

[1] = second compound 0.0316 µM, first compound 0.0316 µM
[2] = second compound 0.0316 µM, first compound 0.1 µM
[3] = second compound 0.0316 µM, first compound 0.316 µM
[4] = second compound 0.0316 µM, first compound 1 µM
[5] = second compound 0.0316 µM, first compound 3.16 µM
[6] = second compound 0.0316 µM, first compound 10 µM
[7] = second compound 0.1 µM, first compound 0.0316 µM
[8] = second compound 0.1 µM, first compound 0.1 µM
[9] = second compound 0.1 µM, first compound 0.316 µM
[10] = second compound 0.1 µM, first compound 1 µM
[11] = second compound 0.1 µM, first compound 3.16 µM
[12] = second compound 0.1 µM, first compound 10 µM
[13] = second compound 0.316 µM, first compound 0.0316 µM
[14] = second compound 0.316 µM, first compound 0.1 µM
[15] = second compound 0.316 µM, first compound 0.316 µM
[16] = second compound 0.316 µM, first compound 1 µM
[17] = second compound 0.316 µM, first compound 3.16 µM
[18] = second compound 0.316 µM, first compound 10 µM
[19] = second compound 1 µM, first compound 0.0316 µM
[20] = second compound 1 µM, first compound 0.1 µM
[21] = second compound 1 µM, first compound 0.316 µM
[22] = second compound 1 µM, first compound 1 µM
[23] = second compound 1 µM, first compound 3.16 µM
[24] = second compound 1 µM, first compound 10 µM
[25] = second compound 3.16 µM, first compound 0.0316 µM
[26] = second compound 3.16 µM, first compound 0.1 µM
[27] = second compound 3.16 µM, first compound 0.316 µM
[28] = second compound 3.16 µM, first compound 1 µM
[29] = second compound 3.16 µM, first compound 3.16 µM
[30] = second compound 3.16 µM, first compound 10 µM
[31] = second compound 10 µM, first compound 0.0316 µM
[32] = second compound 10 µM, first compound 0.1 µM
[33] = second compound 10 µM, first compound 0.316 µM
[34] = second compound 10 µM, first compound 1 µM
[35] = second compound 10 µM, first compound 3.16 µM
[36] = second compound 10 µM, first compound 10 µM
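Also: spheroids exposed to agents for one week before reading.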
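For viability, T/C in this document: 100% = DMSO vehicle control viability.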

Compound: COc1cc(C2c3cc4c(cc3C(OC3OC5COC(C)OC5C(O)C3O)C3COC(=O)C23)OCO4)cc(OC)c1O (centres undefined) + CN(C)c1ccc(Nc2c3ccc(NC(=O)CCN4CCCC4)cc3nc3cc(NC(=O)CCN4CCCC4)ccc23)cc1
- IC50 (second compound 0.0316 µM): 771 nM
- IC50 (second compound 0.1 µM): 808 nM
- IC50 (second compound 0.316 µM): 689 nM
- IC50 (second compound 1 µM): 650 nM
- IC50 (second compound 3.16 µM): 551 nM
- IC50 (second compound 10 µM): 594 nM
- viability, T/C [1]: 109%
- viability, T/C [2]: 89.3%
- viability, T/C [3]: 65%
- viability, T/C [4]: 45.1%
- viability, T/C [5]: 30.1%
- viability, T/C [6]: 17.1%
- viability, T/C [7]: 82.9%
- viability, T/C [8]: 104%
- viability, T/C [9]: 76.5%
- viability, T/C [10]: 43.1%
- viability, T/C [11]: 32.5%
- viability, T/C [12]: 20.1%
- viability, T/C [13]: 94.2%
- viability, T/C [14]: 85.3%
- viability, T/C [15]: 69.5%
- viability, T/C [16]: 40.1%
- viability, T/C [17]: 25.6%
- viability, T/C [18]: 18.2%
- viability, T/C [19]: 89.5%
- viability, T/C [20]: 93.5%
- viability, T/C [21]: 55.8%
- viability, T/C [22]: 45.8%
- viability, T/C [23]: 28%
- viability, T/C [24]: 19.2%
- viability, T/C [25]: 97.5%
- viability, T/C [26]: 78.9%
- viability, T/C [27]: 61.4%
- viability, T/C [28]: 39%
- viability, T/C [29]: 26%
- viability, T/C [30]: 19.9%
- viability, T/C [31]: 79.1%
- viability, T/C [32]: 71%
- viability, T/C [33]: 55.2%
- viability, T/C [34]: 43%
- viability, T/C [35]: 36.1%
- viability, T/C [36]: 23.3%

Compound: CC1COCCN1c1cc(C2(O)CC3CCC(C2)O3)c2cnn(-c3ccn[nH]3)c2n1 (centres undefined) + Cc1cnc(CNC(=O)c2c(=O)c3ccc(N4CCCN(C)CC4)nc3n3c2sc2ccccc23)cn1
- IC50 (second compound 0.0316 µM): < 31.6 nM
- IC50 (second compound 0.1 µM): < 31.6 nM
- IC50 (second compound 0.316 µM): < 31.6 nM
- IC50 (second compound 1 µM): < 31.6 nM
- IC50 (second compound 3.16 µM): < 31.6 nM
- IC50 (second compound 10 µM): < 31.6 nM
- viability, T/C [1]: 23.8%
- viability, T/C [2]: 11.8%
- viability, T/C [3]: 15.9%
- viability, T/C [4]: 13.4%
- viability, T/C [5]: 18.2%
- viability, T/C [6]: 8.84%
- viability, T/C [7]: 23.1%
- viability, T/C [8]: 13%
- viability, T/C [9]: 11.2%
- viability, T/C [10]: 13.4%
- viability, T/C [11]: 15.3%
- viability, T/C [12]: 8.46%
- viability, T/C [13]: 23.8%
- viability, T/C [14]: 14.9%
- viability, T/C [15]: 12.8%
- viability, T/C [16]: 14.5%
- viability, T/C [17]: 15.3%
- viability, T/C [18]: 5.38%
- viability, T/C [19]: 18.4%
- viability, T/C [20]: 13.7%
- viability, T/C [21]: 11.1%
- viability, T/C [22]: 12.1%
- viability, T/C [23]: 10.5%
- viability, T/C [24]: 4.62%
- viability, T/C [25]: 14.2%
- viability, T/C [26]: 13.5%
- viability, T/C [27]: 10.7%
- viability, T/C [28]: 9.81%
- viability, T/C [29]: 6.85%
- viability, T/C [30]: 0.99%
- viability, T/C [31]: 14.2%
- viability, T/C [32]: 13.7%
- viability, T/C [33]: 10.6%
- viability, T/C [34]: 8.67%
- viability, T/C [35]: 6.98%
- viability, T/C [36]: 0.78%
